Experimental data: US20050256161A1, “Melanin concentrating hormone receptor antagonists” (priority 2003, published 2005)

Assays:
human MCH receptor = biological target: T1, human MCH receptor (Homo sapiens, UniProt Q99705); assay: hMCH FLIPR calcium mobilization functional assay; format: cell-based
T1 construct: expressed in transfected cells

[1] = biological target: T2, rat MCH 1 receptor (rMCH1R) (Rattus norvegicus, UniProt P97639); assay: Ligand binding assay (125I native-MCH), rMCH; conditions: rMCH1R expressed in HEK 293, membranes, 0.2 nM 125I native-MCH
T2 construct: expressed in transfected cells; host or cells: HEK 293 (membrane preparation)
Procedure: (§1) Human embryonic kidney cells (293 total) expressing either human, rat, or mouse MCH receptor were harvested from 150 mm culture dishes using PBS. Spinning at 1500 rpm for 2 minutes initially pelleted cells. The resulting pellet was then homogenized in 15 mL ice cold sucrose buffer (25 mM HEPES, 0.3 M sucrose, pH 7.4) with a motorized, glass fitted, Teflon® homogenizer. The homogenate was centrifuged at 48,000×g at 4° C. for 10 minutes, resuspended in 15 mL assay buffer (25 mM HEPES, 10 mM MgCl2, 0.2% BSA, 0.1 mg/mL STI, 0.1 mg/mL Pefabloc®, 1 μM Phosphoramidon, pH 7.4) with a Tissue-Tearor® (Biospec Products) and centrifuged again at 48,000×g for 10 minutes. The pellet was homogenized for a third time in 15 mL assay buffer using the Tissue-Tearor® and again centrifuged at 48,000×g for 10 minutes. The resulting pellet was resuspended in assay buffer at a wet weight concentration of 10-20 mg/mL.
(§2) Binding assays were determined as described below using mouse, rat or human MCH 1 receptors (mMCH1R, rMCH1R, and hMCH1R, respectively) expressed in HEK 293; IC50 values were calculated.
(§3) Binding assays were performed in 96-well U-bottom plates. Membranes (100 μg tissue) were incubated at 30° C. for 90 minutes in assay buffer with various peptides in the presence of 0.2 nM 125I native-MCH (Perkin-Elmer Life Sciences, Boston, Mass.) in 100 μL total volume. Non-specific binding was assessed in the presence of 1 μM cold native-MCH. The reaction was terminated by rapid filtration through Unfilter-96 GF/C glass fiber filter plates (FilterMate® 196 Harvester, Packard Instrument Co., Meriden, Conn.) pre-soaked in PBS/0.5% BSA, followed by three washes with 300 μL ice-cold water. Bound radioactivity was determined using a TopCount® microplate scintillation and luminescence counter (Packard Instrument Co., Meriden, Conn.). Nonlinear regression analyses of drug concentration curves were performed using GraphPad Prism® (GraphPad Software, Inc., San Diego, Calif.).

[2] = biological target: T3, human MCH 1 receptor (hMCH1R) (Homo sapiens, UniProt Q99705); assay: Ligand binding assay (125I native-MCH), hMCH; conditions: hMCH1R expressed in HEK 293, membranes, 0.2 nM 125I native-MCH
T3 construct: expressed in transfected cells; host or cells: HEK 293 (membrane preparation)
Procedure: as §1, §2, §3

rat MCH1 receptor = biological target: T4, rat MCH1 receptor (Rattus norvegicus, UniProt P97639); assay: rMCH FLIPR calcium mobilization functional assay; format: cell-based; conditions: CHOK1-Gqi cells
T4 construct: expressed in transfected cells
Procedure: Pharmacological analyses were conducted using either a HT-PS100 device (Axiom Biotechnologies, San Diego, Calif.), which provides high-resolution dose-response fluorometric measurements of [Ca^++]i mobilization, or using a FLIPR® device (Molecular Devices, Sunnyvale, Calif.).
Materials: Pharmacological analysis was conducted using a FLIPR® device (Molecular Devices, Sunnyvale, Calif.). CHOK1-Gqi cells were stably transfected with the rat MCH1 receptor and maintained under G418 antibiotic pressure. FLIPR® assay buffer consisted of phenol red-free DMEM+2.5 mM probenecid. MCH peptide (Amgen, Inc.) was reconstituted in assay buffer and served as the positive agonist control for all experiments. Test compounds were prepared as 10 mM stocks in 100% DMSO and diluted to a top end working concentration of 10 μM in 96 well black, flat bottom, collagen-I coated plates (Becton Dickinson, Bedford, Mass.).
Methods: CHOK1-Gqi cells stably expressing MCH1R were maintained in Dulbeco's modified Eagle's medium (GIBCO/Life Technologies, Rockville, Md.) supplemented with 2 mM glutamine and 10% dialyzed fetal bovine serum (HyClone, Logan, Utah) at 37° C., 5% CO2. Cells were harvested by 10′ treatment with Versene (GIBCO/Life Technologies) followed by trituration, washing twice with cold (4° C.) hybridoma medium (Serum/Protein free, with L-glutamine, sodium bicarbonate, MOPS buffer) (Sigma-Aldrich Corp, St. Louis, Mo.) and replated onto 96 well black, flat bottom, collagen-I coated plates to a density of 10,000 cells/well. The cells were then loaded with the fluorescent calcium indicator Fura-2 (Molecular Probes, Eugene, Oreg.) at 1.6 μM for 60′ at room temperature. The loaded cells were then washed twice with 90 μl/well of wash buffer (1×HBSS, 20 mM HEPES, 2.5 mM probenecid).
Receptor-stimulated intracellular calcium responses were detected using FLIPR® by monitoring increases in the Fura-2 fluorescence response.
Test compounds were screened for MCH1R activity in the FLIPR® for both agonist and antagonist action. Agonist mode challenges were conducted at a maximum gradient concentration of 1 μM. Antagonist activity was tested by 10 min pre-incubation of cells at a compound concentration of defined to be 300× the EC50 of MCH (typically 1 μM), with subsequent introduction of MCH at a concentration 5-fold of EC50 as determined in preliminary experiments.
Schild experiments were conducted on the FLIPR® for selected compounds by co-administering antagonist compounds together with MCH peptide. Several fixed concentrations of antagonist compounds were prepared in 10-fold increments, and presented to the cells in a gradient of increasing MCH concentration. Values for compound pA2 were calculated by linear regression of MCH EC50s as a function of antagonist concentration.

T3 sequence (Q99705 whole entry): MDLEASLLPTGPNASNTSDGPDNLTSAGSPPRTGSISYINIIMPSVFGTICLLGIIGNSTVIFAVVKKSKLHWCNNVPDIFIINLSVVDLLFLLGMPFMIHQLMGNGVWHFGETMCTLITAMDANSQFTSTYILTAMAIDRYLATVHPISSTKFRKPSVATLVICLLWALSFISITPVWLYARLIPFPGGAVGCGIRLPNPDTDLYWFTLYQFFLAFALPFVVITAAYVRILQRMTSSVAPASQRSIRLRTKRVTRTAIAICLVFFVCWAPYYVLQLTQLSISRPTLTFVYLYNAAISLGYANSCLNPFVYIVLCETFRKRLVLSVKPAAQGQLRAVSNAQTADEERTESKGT
T1 sequence (Q99705 whole entry): as above
T2 sequence (P97639 whole entry): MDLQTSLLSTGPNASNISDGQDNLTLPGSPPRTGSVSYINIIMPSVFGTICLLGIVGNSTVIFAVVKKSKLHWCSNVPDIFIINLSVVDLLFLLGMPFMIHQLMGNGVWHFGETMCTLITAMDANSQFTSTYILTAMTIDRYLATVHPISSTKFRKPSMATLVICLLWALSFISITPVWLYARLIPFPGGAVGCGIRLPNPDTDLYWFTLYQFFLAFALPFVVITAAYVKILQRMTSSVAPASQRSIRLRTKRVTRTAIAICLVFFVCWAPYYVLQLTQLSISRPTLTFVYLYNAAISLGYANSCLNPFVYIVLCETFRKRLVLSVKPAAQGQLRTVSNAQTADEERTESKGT
T4 sequence (P97639 whole entry): as above

| Ki (human MCH receptor; threshold 100 nM or less) [µM] | Ki (human MCH receptor; threshold 100 μM or less) [µM] | IC50 ([1]; threshold 100 μM or less) [µM] | IC50 ([2]; threshold 100 μM or less) [µM] | Ki (rat MCH1 receptor; threshold 100 μM or less) [µM] | IC50 ([1]; threshold 100 nM or less) [µM] | IC50 ([2]; threshold 100 nM or less) [µM] | Ki (rat MCH1 receptor; threshold 100 nM or less) [µM] | Compound |
| --- | --- | --- | --- | --- | --- | --- | --- | --- |
| ≤ 0.1 | ≤ 100 | ≤ 100 | ≤ 100 | ≤ 100 | – | – | – | Cc1ccc(Oc2ccc(C(=O)NCCN3CCCC3)cc2NC(=O)Nc2c(C)cccc2C)cc1C [Compound 35, 4-(3,4-dimethylphenoxy)-3-[3-(2,6-dimethylphenyl)ureido]-N-(2-pyrrolidin-1-yl-ethyl)benzamide] |
| ≤ 0.1 | ≤ 100 | ≤ 100 | ≤ 100 | ≤ 100 | ≤ 0.1 | ≤ 0.1 | ≤ 0.1 | Cc1ccc(Oc2ccc(C(=O)NCCN3CCCC3)cc2NC(=O)Nc2ccccc2Cl)cc1C [Compound 41, 3-[3-(2-chlorophenyl)ureido]-4-(3,4-dimethylphenoxy)-N-(2-pyrrolidin-1-yl-ethyl)benzamide] |
